These results are taken from patent US20180371044A1, “PEPTIDOMIMETIC MACROCYCLES” (Aileron Therapeutics, Inc., priority 2015, published 2018).

Data set [1] concerns the target T1, human GHRH receptor (hGHRHR) (Homo sapiens, UniProt Q02643).
T1 construct: expressed in transfected cells; host or cells: Human 293 cells
T1 sequence (Q02643 23-423): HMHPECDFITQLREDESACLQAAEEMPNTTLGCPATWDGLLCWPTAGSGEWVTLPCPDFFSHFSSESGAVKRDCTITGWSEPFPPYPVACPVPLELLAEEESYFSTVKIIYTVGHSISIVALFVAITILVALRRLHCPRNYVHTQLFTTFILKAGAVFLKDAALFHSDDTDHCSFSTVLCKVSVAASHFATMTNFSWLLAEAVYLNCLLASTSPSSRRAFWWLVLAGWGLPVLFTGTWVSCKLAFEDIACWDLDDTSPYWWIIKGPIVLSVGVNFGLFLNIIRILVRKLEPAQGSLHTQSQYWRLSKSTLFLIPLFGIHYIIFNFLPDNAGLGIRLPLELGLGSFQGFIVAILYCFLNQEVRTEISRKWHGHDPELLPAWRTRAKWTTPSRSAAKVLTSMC
The data set is described as follows: GHRHR agonism measured by cAMP (HTRF) in human 293 cells expressing hGHRHR.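 Also: receptor expressed transiently or stably, cells stimulated in serum-free medium, EC50 from a non-linear dose-response fit, maximal response defined by reference GHRH stimulation.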 As to conditions: 30 min at RT. The class given is cell-based. (In general: Time-resolved FRET reads energy transfer from a long-lived donor to a nearby acceptor.)
Method: GHRH (1-29) and cross-linked peptidomimetic macrocycles were tested for agonism at the human GHRH receptor (hGHRHR) at various concentrations. Human 293 cells transiently or stably expressing hGHRHR were detached from cell culture flasks with versene (Life Technologies™), suspended in serum-free medium (50 k cells/assay point), and stimulated for 30 min at RT with GHRH (1-29) (Bachem™) or cross-linked peptidomimetic macrocycles. cAMP was quantified using an HTRF®-based assay (CisBio) and used according to the manufacturer's instructions. An EC50 for each agonist was calculated from a non-linear fit of response vs dose (GraphPad™ Prism). The maximum response was determined by stimulating with 10 μM GHRH (1-29). (+=>50 nm; ++=>25-50 nm; +++=>10-25 nm; ++++=>1-10 nm; +++++=≤1 nm).

Data set [2] is described as follows: Plasma PK/PD study in rats. To be noted: male Sprague-Dawley rats; for MRT / clearance / Vd / half-life / AUC(0-inf): rat, 3 mg/kg; for clearance: read-out: Clp (converted); for Vd: read-out: Vdss; for half-life: read-out: t ½ (converted); for AUC(0-inf): route not given. Format: in vivo, rat. The method, then: Five peptidomimetic macrocycles of the invention, as well as sermorelin, were studied to determine pharmacokinetic and pharmacodynamic parameters in rats. Male Sprague-Dawley rats (300 g, non-fasted, cannulated) were used. The study had three arms: IV administration, SC administration, and SC administration (vehicle control). For experiments using sermorelin, a dose level of 3 mg/kg IV/SC bolus was used (dose volume of […] dose and dose concentration of 1 mg/mL). The vehicle used was: 10 wt % N, N-Dimethylacetamide, 10 wt % DMSO, 2 wt % Solutol HS 15 in water for injection containing 45 mg/mL (4.5 wt %) Mannitol and 25 mM (0.38 wt %) Histidine (pH 7.5; 320 mOsm/kg). The peptide was first dissolved at high concentration in DMA and DMSO before a second dilution in Solutol vehicle.
For experiments using peptidomimetic macrocycles, 0.1 mL of DMA and 0.1 mL of DMSO were used to combine with each mg of macrocycle (˜4.3-4.5 mg of macrocycle used in each experiment). Sonication was used to ensure complete solubilization. 0.8 mL of Solutol vehicle was used for each mg of macrocycle in DMA/DMSO. The solutions were mixed gently with pipet or light vortexing. Fresh vials were used for each day of dosing, and macrocycles were stored solid at −20° C. prior to formulation.
For each study arm, 2 rats were bled (350 μL) at specific time points (5 min, 15 min, 30 min, 1 h, 2 h, 4 h, 8 h, 24 h, and 48 h) and a 150 μL bleed was performed just before dosing. Plasma was prepared into K2EDTA tubes by centrifuging for 20 minutes at 4° C. at 2000G maximum 30 minutes after collection. From each 350 μL bleed, 120 μL were transferred to one tube for PK studies and 50 μL to another tube for PD studies and frozen immediately. From the 150 μL bleed, 70 μL were transferred to one tube for PD studies and frozen immediately.

Molecules are shown by their SMILES. Where a SMILES comes first, the peptide text is derived from it. Bridges are numbered along the chain shown (N, C = ends). [ ]: non-standard residue; d: D form. NMeY = CN[C@@H](Cc1ccc(O)cc1)C(=O)O; R8 = C=CCCCCCC[C@@](C)(N)C(=O)O; S5 = C=CCCC[C@](C)(N)C(=O)O; hSer = N[C@@H](CCO)C(=O)O; Nle = CCCC[C@H](N)C(=O)O; Aib = CC(C)(N)C(=O)O

By EC50 is commonly meant the concentration that produces a half-maximal response. A low value points to an effect from little substance. For orientation: MRT means a mean duration of stay, worked out from the concentration-time curve. As a reminder, the AUC(0-inf) is the area under the concentration-time curve extrapolated to infinity. A higher AUC(0-inf) goes with high exposure. For `CCCC[C@H](NC(=O)[C@@H](NC(=O)[C@H](CC(=O)O)NC(=O)[C@H](CCC(N)=O)NC(=O)[C@H](CC(C)C)NC(=O)[C@H](C)NC(=O)[C@H](CCCCN)NC(=O)[C@H](CCCNC(=N)N)NC(=O)[C@H](C)NC(=O)[C@H](CO)NC(=O)[C@H](CC(C)C)NC(=O)[C@H](CCC(N)=O)NC(=O)[C@H](C)NC(=O)[C@H](CC(C)C)NC(=O)[C@@H](NC(=O)[C@H](CCCCN)NC(=O)[C@H](CCCNC(=N)N)NC(=O)[C@H](Cc1ccc(O)cc1)NC(=O)[C@H](CO)NC(=O)[C@H](C)NC(=O)[C@@H](NC(=O)[C@H](Cc1ccccc1)NC(=O)[C@@H](NC(=O)[C@]1(C)CCCC=CCCC[C@](C)(N)C(=O)N[C@@H](Cc2ccc(O)cc2)C(=O)N[C@@H](C)C(=O)N[C@@H](CC(=O)O)C(=O)N1)[C@@H](C)CC)[C@@H](C)O)C(C)C)[C@@H](C)CC)C(=O)N[C@@H](CO)C(=O)N[C@@H](CCCNC(=N)N)C(N)=O` [SP-6] (H-[S5]YAD[S5]IFTASYRKVLAQLSARKALQDI[Nle]SR-NH2; staple 1-5), the EC50 in data set [1] is 25 to 50 nM. Besides, in data set [2], the “AUC Ext (%)” value came to 16.3%, the MRT came to 3.7 h, the clearance is 2.13 mL/min/kg and the Vd is 0.474 L/kg. Also, in data set [2], the half-life was 1240 min and the AUC(0-inf) worked out at 23500 ng·h/mL.
In the case of `CCCC[C@@H]1NC(=O)[C@H]([C@@H](C)CC)NC(=O)[C@H](CC(=O)O)NC(=O)[C@@](C)(NC(=O)[C@H](CC(C)C)NC(=O)[C@H](C)NC(=O)[C@H](CCCCN)NC(=O)[C@H](CCCNC(=N)N)NC(=O)[C@H](C)NC(=O)[C@H](CO)NC(=O)[C@H](CC(C)C)NC(=O)[C@H](CCC(N)=O)NC(=O)[C@H](C)NC(=O)[C@H](CC(C)C)NC(=O)[C@@H](NC(=O)[C@H](CCCCN)NC(=O)[C@H](CCCNC(=N)N)NC(=O)[C@H](Cc2ccc(O)cc2)NC(=O)[C@H](CO)NC(=O)[C@H](C)NC(=O)[C@@H](NC(=O)[C@H](Cc2ccccc2)NC(=O)[C@@H](NC(=O)[C@H](C)NC(=O)[C@H](CC(=O)O)NC(=O)[C@H](C)NC(=O)[C@H](Cc2ccc(O)cc2)NC)[C@@H](C)CC)[C@@H](C)O)C(C)C)CCCC=CCCC[C@@](C)(C(=O)N[C@@H](CCCNC(=N)N)C(N)=O)NC1=O` [SP-21] (H-[NMeY]ADAIFTASYRKVLAQLSARKAL[S5]DI[Nle][S5]R-NH2; staple 24-28; N-terminus and C-terminus assumed), in data set [2], the “AUC Ext (%)” value is given as 9.4%, the MRT was determined as 5.3 h, the clearance is 1.65 mL/min/kg and the Vd came to 0.524 L/kg. In data set [2], the half-life was 606 min and the AUC(0-inf) was determined as 30500 ng·h/mL.
In the case of `CCCC[C@@H]1NC(=O)[C@H]([C@@H](C)CC)NC(=O)[C@H](CC(=O)O)NC(=O)[C@H](CCC(N)=O)NC(=O)[C@H](CC(C)C)NC(=O)[C@H](C)NC(=O)[C@](C)(NC(=O)[C@H](CCCNC(=N)N)NC(=O)[C@H](C)NC(=O)[C@H](CO)NC(=O)[C@H](CC(C)C)NC(=O)[C@H](CCC(N)=O)NC(=O)[C@H](C)NC(=O)[C@H](CC(C)C)NC(=O)[C@@H](NC(=O)[C@H](CCCCN)NC(=O)[C@H](CCCNC(=N)N)NC(=O)[C@H](Cc2ccc(O)cc2)NC(=O)[C@H](CO)NC(=O)[C@H](C)NC(=O)[C@@H](NC(=O)[C@H](Cc2ccccc2)NC(=O)[C@@H](NC(=O)[C@H](C)NC(=O)[C@H](CC(=O)O)NC(=O)[C@H](C)NC(=O)[C@H](Cc2ccc(O)cc2)NC)[C@@H](C)CC)[C@@H](C)O)C(C)C)CCCCCCC=CCCC[C@@](C)(C(=O)N[C@@H](CCCNC(=N)N)C(N)=O)NC1=O` [SP-32] (H-[NMeY]ADAIFTASYRKVLAQLSAR[R8]ALQDI[Nle][S5]R-NH2; staple 21-28; N-terminus and C-terminus assumed), in data set [2], the “AUC Ext (%)” value is given as 3.0%, the MRT stood at 2.3 h, the clearance is 1.35 mL/min/kg and the Vd was 0.19 L/kg. Also, in data set [2], the half-life was 582 min and the AUC(0-inf) was 37000 ng·h/mL.
For `CCCC[C@H](NC(=O)[C@H](C)NC(=O)[C@H](CC(=O)O)NC(=O)[C@H](CCC(N)=O)NC(=O)[C@H](CC(C)C)NC(=O)[C@H](C)NC(=O)[C@H](CCCCN)NC(=O)[C@H](CCCNC(=N)N)NC(=O)[C@]1(C)CCCC=CCCCCCC[C@@](C)(NC(=O)[C@H](CCCNC(=N)N)NC(=O)[C@H](Cc2ccc(O)cc2)NC(=O)[C@H](CO)NC(=O)[C@H](C)NC(=O)[C@@H](NC(=O)[C@H](Cc2ccccc2)NC(=O)[C@@H](NC(=O)[C@H](C)NC(=O)[C@H](CC(=O)O)NC(=O)[C@H](C)NC(=O)[C@H](Cc2ccc(O)cc2)NC)[C@@H](C)CC)[C@@H](C)O)C(=O)N[C@@H](C(C)C)C(=O)N[C@@H](CC(C)C)C(=O)N[C@@H](C)C(=O)N[C@@H](CCC(N)=O)C(=O)N[C@@H](CC(C)C)C(=O)N[C@@H](CO)C(=O)N1)C(=O)N[C@@H](CO)C(=O)N[C@@H](CCCNC(=N)N)C(N)=O` [SP-62] (H-[NMeY]ADAIFTASYR[R8]VLAQLS[S5]RKALQDA[Nle]SR-NH2; staple 12-19), in data set [1], the EC50 lay in the range of 25 to 50 nM.
Turning to `CCCC[C@H](NC(=O)[C@@H](NC(=O)[C@H](CC(=O)O)NC(=O)[C@H](CCC(N)=O)NC(=O)[C@H](CC(C)C)NC(=O)C(C)(C)NC(=O)[C@H](CCCCN)NC(=O)[C@H](CCCNC(=N)N)NC(=O)[C@]1(C)CCCC=CCCCCCC[C@@](C)(NC(=O)[C@H](CCCNC(=N)N)NC(=O)[C@H](Cc2ccc(O)cc2)NC(=O)[C@H](CO)NC(=O)[C@H](C)NC(=O)[C@@H](NC(=O)[C@H](Cc2ccccc2)NC(=O)[C@@H](NC(=O)[C@H](C)NC(=O)[C@H](CC(=O)O)NC(=O)[C@H](C)NC(=O)[C@H](Cc2ccc(O)cc2)NC)[C@@H](C)CC)[C@@H](C)O)C(=O)N[C@@H](C(C)C)C(=O)N[C@@H](CC(C)C)C(=O)N[C@@H](C)C(=O)N[C@@H](CCC(N)=O)C(=O)N[C@@H](CC(C)C)C(=O)N[C@@H](CO)C(=O)N1)[C@@H](C)CC)C(=O)N[C@@H](CO)C(=O)N[C@@H](CCCNC(=N)N)C(N)=O` [SP-65] (H-[NMeY]ADAIFTASYR[R8]VLAQLS[S5]RK[Aib]LQDI[Nle]SR-NH2; staple 12-19), the EC50 in data set [1] is 25 to 50 nM.
Still for that read-out and setting: in the case of `CCCC[C@H](NC(=O)[C@@H](NC(=O)[C@H](CC(=O)O)NC(=O)C(C)(C)NC(=O)[C@H](CC(C)C)NC(=O)[C@H](C)NC(=O)[C@H](CCCCN)NC(=O)[C@H](CCCNC(=N)N)NC(=O)[C@]1(C)CCCC=CCCCCCC[C@@](C)(NC(=O)[C@H](CCCNC(=N)N)NC(=O)[C@H](Cc2ccc(O)cc2)NC(=O)[C@H](CO)NC(=O)C(C)(C)NC(=O)[C@@H](NC(=O)[C@H](Cc2ccccc2)NC(=O)[C@@H](NC(=O)[C@H](C)NC(=O)[C@H](CC(=O)O)NC(=O)[C@H](C)NC(=O)[C@H](Cc2ccc(O)cc2)NC)[C@@H](C)CC)[C@@H](C)O)C(=O)N[C@@H](C(C)C)C(=O)N[C@@H](CC(C)C)C(=O)N[C@@H](C)C(=O)N[C@@H](CCC(N)=O)C(=O)N[C@@H](CC(C)C)C(=O)N[C@@H](CO)C(=O)N1)[C@@H](C)CC)C(=O)N[C@@H](CO)C(=O)N[C@@H](CCCNC(=N)N)C(N)=O` [SP-67] (H-[NMeY]ADAIFT[Aib]SYR[R8]VLAQLS[S5]RKAL[Aib]DI[Nle]SR-NH2; staple 12-19) it was 10 to 25 nM.
On to `CC[C@H](C)[C@H](NC(=O)[C@H](C)NC(=O)[C@H](CC(=O)O)NC(=O)[C@H](C)NC(=O)[C@H](Cc1ccc(O)cc1)NC)C(=O)N[C@@H](Cc1ccccc1)C(=O)N[C@H](C(=O)N[C@@H](C)C(=O)N[C@@H](CO)C(=O)N[C@@H](Cc1ccc(O)cc1)C(=O)N[C@@H](CCCNC(=N)N)C(=O)N[C@]1(C)CCCCCCC=CCCC[C@@](C)(C(=O)N[C@@H](CCCNC(=N)N)C(=O)N[C@@H](CCCCN)C(=O)N[C@@H](C)C(=O)N[C@@H](CC(C)C)C(=O)N[C@@H](CCC(N)=O)C(=O)N[C@@H](CC(=O)O)C(=O)N[C@H](C(=O)N[C@@H](CCOC)C(=O)N[C@@H](CO)C(=O)N[C@@H](CCCNC(=N)N)C(N)=O)[C@@H](C)CC)NC(=O)[C@H](CO)NC(=O)[C@H](CC(C)C)NC(=O)[C@H](CCC(N)=O)NC(=O)[C@H](C)NC(=O)[C@H](CC(C)C)NC(=O)[C@H](C(C)C)NC1=O)[C@@H](C)O` [SP-68] (H-[NMeY]ADAIFTASYR[R8]VLAQLS[S5]RKALQDI[hSer](Me)SR-NH2; staple 12-19), for which, in data set [1], the EC50 fell in the range of 10 to 25 nM.
